This is an account of results in patent publication US11426371B2, “Compositions and methods for treating cancer” (University of Virginia Patent Foundation, priority 2017, dated 2022).

Molecules are shown by their SMILES. “Also recorded” adds a separate entry of the source. Like-named read-outs stand apart in the source and are kept apart here. A value given as a limit tells only on which side of the number the result lay.

The subject of data set [1] is AML cell lines (HL60/VCR, OCI-AML2, THP-1). The data set can be described thus: Viability of AML cell lines, MTS and Cell Titer Glo (FIGS. 2, 4, Table 2). Type of data set: cell-based, human. To be noted: for EC50: Homo sapiens, 24 h. As to the method: (§1) Representative human AML cell lines (FIG. 2A; upper and lower panels) HL60/VCR and (FIG. 2B; upper and lower panels) OCI-AML2 were treated with SACLAC for 24 and 48 hours. Viability was assessed by MTS assay at 24 and 48 hours and apoptosis was assessed by flow cytometry at 48 hours. Upper panels represent % viability and lower panels indicate % apoptosis.
(§2) AML cell lines and normal samples (PBMCs and/or CD34+ cells) were treated for 24 hours with SACLAC (FIG. 4A-7 cell lines) and similar AC inhibitor SABRAC (2-bromo-N-((2S,3R)-1,3-dihydroxyoctadecan-2-yl)acetamide) (FIG. 4B-four cell lines). Viability was assessed by MTS and Cell Titer Glo viability assays. EC50 values (FIG. 4C) were graphed to visualize fold-change between AML and normal cells with treatment of each compound. […] Cells tested for SABRAC were HL60/VCR and OCI-AML2 AML cell lines and two normal PBMC control samples (PBMC1 and PBMC2). The same four cell types were tested for SACLAC, as well as the AML cell line THP-1 and two normal CD34+ cell control samples (CD34+1 and CD34+2).
(§3) Next, we tested the toxicity of SACLAC and a similar published AC inhibitor SABRAC^17 to normal hematopoietic cells to ensure that AML cells are selectively targeted by the compound (FIG. 4A). […] This degree of selectivity was unexpected but extremely important for potential clinical use. […] This remarkable increase in selectivity is a surprising discovery that greatly exceeds the predicted similarity in compound behavior that one may expect with a simple substitution of one halogen for another (Cl for Br).

Data set [2] concerns S1P and ceramide in HL60/VCR and OCI-AML2. As to the kind of experiment: Lipid metabolites by mass spectrometry in AML cell lines. Type of data set: cell-based, human. Particulars: HL60/VCR and OCI-AML2, 24 hours. As for the experimental part:
Representative human AML cell lines (FIG. 3A; upper and lower panels) HL60/VCR and (FIG. 3B; upper and lower panels) OCI-AML2 were treated with SACLAC for 24 hours. Concentrations of lipid metabolites were determined by mass spectrometry. *, p<0.05; **, p<0.01 (Student's t-test). Upper panels represent Lipid in pmol/mg protein and lower panels represent Ceramide in pmol/mg protein.
We also characterized lipid changes in response to SACLAC treatment in order to provide further evidence of potent AC inhibition (FIGS. 3A-3B). […] Thus, the inhibitor blocks a common mechanism of ceramide detoxification in AML and is likely to provide therapeutic benefit by facilitating ceramide accumulation and apoptotic death of these proliferative cells.

For data set [3], the system named is normal samples (PBMCs and/or CD34+ cells). As to the kind of experiment: Viability of normal samples, MTS and Cell Titer Glo (FIG. 4, Table 2). It counts as cell-based. To be noted: PBMC. As to the method:
as §2, §3
For orientation: ATP-based viability assays read luminescence as a measure of living cells.

Data set [4] concerns primary AML patient samples. The data set can be described thus: Apoptosis in primary AML patient cells. Type of data set: cell-based, human. Particulars: 48 hours, nutrient- and growth factor-rich culture. As to the method: Multiple primary patient (Pt) AML cells were treated with various doses of SACLAC and assayed for apoptosis at 48 hours and colony formation over several days. […] The ordinate represents Colonies (as % of control) and the abscissa represents the concentration of SACLAC (μM). Unt=untreated; DMSO=dimethyl sulfoxide vehicle control.
Further, effects on patient samples strongly support the potential for clinical relevance of SACLAC. […] Based on the data presented here, we propose that use of SACLAC for treatment of AML is novel and clinically promising.

Data set [5] deals with Human AML cell lines (n = 30). As to the kind of experiment: Cell viability, average over the panel of AML cell lines. Type of data set: cell-based. Particulars: mean over 30 human AML cell lines. As for the experimental part:
as §1
Two representative human-derived AML cell lines, HL60/VCR and OCI-AML2, are shown. These studies have been expanded to a large panel of additional human AML cell lines (n=30, Table 1).

Data set [6] in a line: Maximum tolerated dose in vivo. To be noted: preliminary results (not shown). As to the method:
Preliminary results (not shown) indicate a maximum tolerated dose in vivo of at least about 50 mg/kg body weight. Pharmacokinetic studies are in progress to measure any accumulation of SACLAC in the blood following treatment. Initial studies are based on doses of 20 or 40 mg/kg body weight.

The next data set deals with T1, acid ceramidase (AC) (Homo sapiens, UniProt Q13510).
T1 sequence (Q13510 143-395 limits assumed): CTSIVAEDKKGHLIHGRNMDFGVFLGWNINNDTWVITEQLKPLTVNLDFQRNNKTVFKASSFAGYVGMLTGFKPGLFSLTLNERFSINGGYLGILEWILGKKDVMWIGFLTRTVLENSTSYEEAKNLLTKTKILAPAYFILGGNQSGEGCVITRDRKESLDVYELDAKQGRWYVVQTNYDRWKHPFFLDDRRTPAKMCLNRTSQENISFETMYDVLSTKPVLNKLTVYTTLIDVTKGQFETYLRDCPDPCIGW
T1 sequence (Q13510 22-142 limits assumed): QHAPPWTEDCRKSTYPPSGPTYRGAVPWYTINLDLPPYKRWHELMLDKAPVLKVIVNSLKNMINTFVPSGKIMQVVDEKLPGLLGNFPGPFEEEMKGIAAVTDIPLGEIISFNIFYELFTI
As to the kind of experiment: AC activity in AML cell lines, fluorogenic AC substrate. It counts as cell-based. Also on record: endogenous in cells; host or cells: HL60/VCR, OCI-AML2, THP-1 human AML cell lines. As to the method: Ceramide analog SACLAC (FIG. 1A) inhibits AC activity in representative human AML cell lines (FIG. 1B) HL60/VCR and (FIG. 1C) OCI-AML2 after 24 hours. Activity was assessed by incubation with a fluorogenic AC substrate. Published AC inhibitor LCL204 is included for comparison.
The ordinate represents AC Activity as percent of control and the abscissa represents SACLAC or LCL204 concentration.

Take `CCCCCCCCCCCCCCC[C@@H](O)[C@H](CO)NC(=O)CCl` [SACLAC, 2-chloro-N-((2S,3R)-1,3-dihydroxyoctadecan-2-yl)acetamide]: the viability result in data set [1] (HL60/VCR and OCI-AML2, MTS, 24 and 48 hours, dose-dependent) is given as “reduced viability”. Besides, the EC50 in data set [1] (mean of AML cell lines, 24 hours, read-out: EC50 AML) worked out at 2270 nM; in data set [1] (SACLAC: HL60/VCR, OCI-AML2, THP-1, SABRAC: HL60/VCR, OCI-AML2, order of cells not given, read-out: EC50, single AML cell lines (FIG. 4A, 4B)), 2600 nM; in data set [3] (24 h, mean of normal samples (PBMCs and/or CD34+ cells), 24 hours, read-out: EC50 Normal), 13400 nM; in data set [3] (24 h, normal controls at 24 h, mean ± spread, read-out: EC50, normal controls), 13500 ± 7100 nM; in data set [3] (n=10, read-out: mean EC50, normal PMBC and CD34+ controls), 6000 nM; in data set [5] (24 h, read-out: EC50 24 h, Average) it was 2300 nM. For the same molecule, the EC50 in data set [5] (48 h, read-out: EC50 48 h, Average) was 1900 nM. The S1P result in data set [2] was “significantly reduced S1P”. For the same molecule, in data set [2], the ceramide result is recorded as “increased ceramide”. Besides, the apoptosis result in data set [4] is recorded as “effectively induced apoptosis”. The same molecule showed a maximal tolerated dose (MTD) in data set [6] of no less than 50 mg/kg. For the same molecule, the AC activity entry at acid ceramidase (AC) (HL60/VCR and OCI-AML2, 24 hours) was “decreased AC activity at all tested doses; also recorded: nearly complete inhibition at nanomolar concentrations”. Further, on acid ceramidase (AC) (HL60/VCR, THP-1 and OCI-AML2 cells, 24 h), the “AC activity, compared with LCL204” value is given as “inhibited AC activity more potently than LCL204”.

Broadly, the EC50 is the midpoint of the concentration-response curve. One may read the MTD as the highest dose tested that stayed within the study's limit of toxicity.
